In one experiment the test system is E. coli A-15119. Put plainly: MIC, tube dilution, Escherichia coli A15119. The class given is cell-based. The note with it: overnight 37° C.; for MIC: Escherichia coli, A15119, E. coli A15119, read-out: Minimum Inhibitory Concentration (M.I.C.). The text has this: (§1) Representative compounds of the present invention were subjected to in vitro antibiotic screening against a variety of microorganisms.

The test system of a further experiment is Str. faecalis A-20688. The experiment in a line: MIC, tube dilution, Streptococcus faecalis A20688. The note with it: overnight 37° C.; for MIC: Enterococcus faecalis, A20688, Str. faecalis A20688, read-out: Minimum Inhibitory Concentration (M.I.C.). The class given is cell-based.
From the text: as §1

A further experiment concerns K. pneumoniae A-15130. The experiment in a line: MIC, tube dilution, Klebsiella pneumoniae A15130. The experiment is classed as cell-based. The note with it: overnight 37° C.; for MIC: Klebsiella pneumoniae, A15130, K. pneumoniae A15130, read-out: Minimum Inhibitory Concentration (M.I.C.).
From the text: as §1

In a further experiment the test system is Pr. vulgaris A-9716. Put plainly: MIC, tube dilution, Proteus vulgaris / Proteus mirabilis A9716. The note with it: Proteus vulgaris, A9716, Proteus vulgaris / Proteus mirabilis A9716; overnight 37° C.; read-out: Minimum Inhibitory Concentration (M.I.C.). The experiment is classed as cell-based, Proteus vulgaris (name changed to Proteus mirabilis).
From the text: as §1

A further experiment has as its system Str. pyogenes A-9604. The experiment in a line: MIC, tube dilution, Streptococcus pyogenes A9604. The class given is cell-based. The note with it: overnight 37° C., Nutrient Broth; for MIC: Streptococcus pyogenes, A9604, Str. pyogenes A9604, read-out: Minimum Inhibitory Concentration (M.I.C.).
From the text: as §1

Another experiment relates to Pr. morganii A-15153. The experiment in a line: MIC, tube dilution, Proteus morganii A15153. The class given is cell-based. The note with it: overnight 37° C.; for MIC: Morganella morganii, A15153, Proteus morganii A15153, read-out: Minimum Inhibitory Concentration (M.I.C.).
From the text: as §1

For a further experiment, the system named is E. coli A-20341-1. Put plainly: MIC, tube dilution, Escherichia coli A20341-1. The class given is cell-based.
From the text: as §1

For experiment [1], the system named is Staph. aureus A-9537 and 50% serum. The experiment in a line: MIC, tube dilution, Staph. aureus A9537 + 50% serum. The experiment is classed as cell-based, Staphylococcus aureus. The note with it: overnight 37° C.; for MIC: Staphylococcus aureus, read-out: Minimum Inhibitory Concentration (M.I.C.).
From the text: as §1

The test system of another experiment is Str. pneumoniae A-9585. Put plainly: MIC, tube dilution, Streptococcus pneumoniae A9585. The experiment is classed as cell-based. The note with it: overnight 37° C., Nutrient Broth; for MIC: Streptococcus pneumoniae, A9585, Str. pneumoniae A9585, read-out: Minimum Inhibitory Concentration (M.I.C.).
From the text: as §1

The subject of another experiment is Ent. cloacae A-9656. Put plainly: MIC, tube dilution, Enterobacter cloacae A9656. The class given is cell-based. The note with it: overnight 37° C.; for MIC: Enterobacter cloacae, A9656, Enterobacter cloacae A9656, read-out: Minimum Inhibitory Concentration (M.I.C.).
From the text: as §1

In the next experiment the test system is Pr. mirabilis A-9900. The experiment in a line: MIC, tube dilution, Proteus mirabilis A9900. The experiment is classed as cell-based. The note with it: overnight 37° C.; for MIC: Proteus mirabilis, A9900, Proteus mirabilis A9900, read-out: Minimum Inhibitory Concentration (M.I.C.).
From the text: as §1

Experiment [2] deals with Klebsiella species A20468. The experiment in a line: MIC, tube dilution, Klebsiella species A20468. The experiment is classed as cell-based. The note with it: Klebsiella species (K. pneumoniae) A20468, overnight 37° C.; for MIC: read-out: Minimum Inhibitory Concentration (M.I.C.).
From the text: as §1

Another experiment concerns Proteus rettgeri A21203. Put plainly: MIC, tube dilution, Proteus rettgeri A21203. The class given is cell-based. The note with it: overnight 37° C.; for MIC: Providencia rettgeri, A21203, Proteus rettgeri A21203, read-out: Minimum Inhibitory Concentration (M.I.C.).
From the text: as §1

The next experiment relates to Ent. cloacae A-9659. Put plainly: MIC, tube dilution, Enterobacter cloacae A9659. The note with it: overnight 37° C.; for MIC: Enterobacter cloacae, A9659, Enterobacter cloacae A9659, read-out: Minimum Inhibitory Concentration (M.I.C.). The class given is cell-based.
From the text: as §1

For experiment [3], the system named is Staph. aureus (Meth-Res) A-15097. Put plainly: MIC, tube dilution, Staphylococcus aureus A15097 (Meth-Res). The experiment is classed as cell-based. The note with it: overnight 37° C.; for MIC: Staphylococcus aureus.
From the text: as §1

For a further experiment, the system named is Staph. aureus A-9537. Put plainly: MIC, tube dilution, Staphylococcus aureus A9537. The experiment is classed as cell-based. The note with it: overnight 37° C., Nutrient Broth; for MIC: Staphylococcus aureus, A9537, Staph. aureus A9537, read-out: Minimum Inhibitory Concentration (M.I.C.).
From the text: as §1

The subject of the next experiment is Ser. marcescens A-20019. The experiment in a line: MIC, tube dilution, Serratia marcescens A20019. The experiment is classed as cell-based. The note with it: overnight 37° C.; for MIC: Serratia marcescens, A20019, Serratia marcescens A20019, read-out: Minimum Inhibitory Concentration (M.I.C.).
From the text: as §1

In experiment [4] the test system is Staph. aureus (Pen-Res) A-9606. The experiment in a line: MIC, tube dilution, Staphylococcus aureus A9606 (Pen-Res). The class given is cell-based. The note with it: Staph. aureus A9606 (Pen-Res), overnight 37° C.; for MIC: Staphylococcus aureus, read-out: Minimum Inhibitory Concentration (M.I.C.).
From the text: as §1

Another experiment has as its system Ps. aeruginosa A-21213. The experiment in a line: MIC, tube dilution, Pseudomonas aeruginosa A21213. The class given is cell-based. The note with it: overnight 37° C.; for MIC: read-out: Minimum Inhibitory Concentration (M.I.C.).
From the text: as §1

A further experiment relates to Ps. aeruginosa A-9843A. Put plainly: MIC, tube dilution, Pseudomonas aeruginosa A9843A. The class given is cell-based. The note with it: overnight 37° C.; for MIC: Pseudomonas aeruginosa, A9843A, read-out: Minimum Inhibitory Concentration (M.I.C.), Pseudomonas aeruginosa A9843A.
From the text: as §1

The test system of a further experiment is Proteus vulgaris A21559. The experiment in a line: MIC, tube dilution, Proteus vulgaris A21559. The class given is cell-based. The note with it: overnight 37° C.
From the text: as §1

Converted amounts (≈) assume the structure as drawn. Where two headings read alike, the source gives them in different places. Some results are limits rather than exact numbers.

`Cn1cc(C2=C(C(=O)O)N3C(=O)CC3S2)cn1` (stereo not drawn) [Example 15]: the MIC in the experiment with E. coli A-15119 is 16 µg/mL (≈ 63.7 µM); with Str. faecalis A-20688, 63 µg/mL (≈ 251 µM); with K. pneumoniae A-15130, 125 µg/mL (≈ 497 µM); in the experiment with Pr. vulgaris A-9716 it was 16 µg/mL (≈ 63.7 µM); with Str. pyogenes A-9604, 0.5 µg/mL (≈ 1.99 µM); in the experiment on Pr. morganii A-15153 it was 63 µg/mL (≈ 251 µM). Moreover, the MIC in the experiment with E. coli A-20341-1 (Escherichia coli, A203411; E. coli A20341-1; overnight 37° C.; read-out: Minimum Inhibitory Concentration (M.I.C.)) was greater than 125 µg/mL; in experiment [1], greater than 63 µg/mL; in the experiment on Str. pneumoniae A-9585 it was 0.13 µg/mL (≈ 0.517 µM); in the experiment with Ent. cloacae A-9656 it was 63 µg/mL (≈ 251 µM); in the experiment with Pr. mirabilis A-9900, 16 µg/mL (≈ 63.7 µM); in [2] it was greater than 125 µg/mL. In addition, the MIC was 16 µg/mL (≈ 63.7 µM) with Proteus rettgeri A21203; 125 µg/mL (≈ 497 µM) in the experiment with Ent. cloacae A-9659; 125 µg/mL (≈ 497 µM) in experiment [3] (read-out: Minimum Inhibitory Concentration (M.I.C.), Staph. aureus A15097 (Meth-Res)); 1 µg/mL (≈ 3.98 µM) with Staph. aureus A-9537; 63 µg/mL (≈ 251 µM) in the experiment with Ser. marcescens A-20019; 32 µg/mL (≈ 127 µM) in experiment [4]. Also, the MIC with Ps. aeruginosa A-21213 (Pseudomonas aeruginosa A21213) and with Ps. aeruginosa A-9843A was 125 µg/mL (≈ 497 µM) throughout.

For `NCC[S+]([O-])CC1=C(C(=O)O)N2C(=O)C[C@H]2S1` (stereo partly drawn) [Example 101, 2-(2-Aminoethylsulfinylmethyl) penem-3-carboxylic Acid], the MIC with Proteus vulgaris A21559 (Proteus vulgaris, A21559, Proteus vulgaris A21559, read-out: Minimum Inhibitory Concentration (M.I.C.)) is 16 µg/mL (≈ 57.9 µM); with E. coli A-15119, 8 µg/mL (≈ 28.9 µM); in the experiment with Str. faecalis A-20688, greater than 63 µg/mL; in the experiment on K. pneumoniae A-15130, 32 µg/mL (≈ 116 µM); in the experiment with Str. pyogenes A-9604 it was 0.5 µg/mL (≈ 1.81 µM); in the experiment on Pr. morganii A-15153, 16 µg/mL (≈ 57.9 µM). Besides, the MIC is 32 µg/mL (≈ 116 µM) with E. coli A-20341-1 (Escherichia coli, A203411, E. coli A20341-1; overnight 37° C.; read-out: Minimum Inhibitory Concentration (M.I.C.)); 4 µg/mL in experiment [1]; 0.5 µg/mL (≈ 1.81 µM) in the experiment with Str. pneumoniae A-9585; 63 µg/mL (≈ 228 µM) in the experiment on Ent. cloacae A-9656; 8 µg/mL (≈ 28.9 µM) with Pr. mirabilis A-9900; greater than 63 µg/mL in experiment [2]. Besides, the MIC was determined as 16 µg/mL (≈ 57.9 µM) in the experiment with Proteus rettgeri A21203; 32 µg/mL (≈ 116 µM) with Ent. cloacae A-9659; 63 µg/mL (≈ 228 µM) in experiment [3] (Staph. aureus A15097 (Meth-Res), read-out: Minimum Inhibitory Concentration (M.I.C.)); 0.5 µg/mL (≈ 1.81 µM) in the experiment with Staph. aureus A-9537; 32 µg/mL (≈ 116 µM) with Ser. marcescens A-20019; 4 µg/mL (≈ 14.5 µM) in experiment [4]. For the same compound, the MIC with Ps. aeruginosa A-21213 (Pseudomonas aeruginosa, A21213, Pseudomonas aeruginosa A21213) came to 63 µg/mL (≈ 228 µM); in the experiment on Ps. aeruginosa A-9843A, 63 µg/mL (≈ 228 µM).

In the case of `NCCCCCC1=C(C(=O)O)N2C(=O)C[C@H]2S1` [Example 102, (5R) 2-(5'-aminopentyl)-penem-3-carboxylic acid], the “Minimum Inhibitory Concentration (M.I.C.)” value in the experiment with Proteus vulgaris A21559 (Proteus vulgaris A21559) was 16 µg/mL; in the experiment with E. coli A-15119 (E. coli A15119) it was 1 µg/mL; in the experiment on Str. faecalis A-20688 (Str. faecalis A20688) it was 4 µg/mL; with K. pneumoniae A-15130 (K. pneumoniae A15130), 2 µg/mL; in the experiment on Str. pyogenes A-9604 (Str. pyogenes A9604), “.016 µg/mL”; with Pr. morganii A-15153 (Proteus morganii A15153) it was 2 µg/mL. The “Minimum Inhibitory Concentration (M.I.C.)” value is 16 µg/mL in the experiment on E. coli A-20341-1 (E. coli A20341-1; overnight 37° C.); “.25 µg/mL” in experiment [1]; “.008 µg/mL” in the experiment with Str. pneumoniae A-9585 (Str. pneumoniae A9585); 2 µg/mL in the experiment on Ent. cloacae A-9656 (Enterobacter cloacae A9656); 2 µg/mL in the experiment with Pr. mirabilis A-9900 (Proteus mirabilis A9900); greater than 63 µg/mL in experiment [2]. The “Minimum Inhibitory Concentration (M.I.C.)” value was 2 µg/mL with Proteus rettgeri A21203 (Proteus rettgeri A21203); 4 µg/mL in the experiment on Ent. cloacae A-9659 (Enterobacter cloacae A9659); 8 µg/mL in experiment [3] (Staph. aureus A15097 (Meth-Res)); “.03 µg/mL” in the experiment with Staph. aureus A-9537 (Staph. aureus A9537); 2 µg/mL in the experiment with Ser. marcescens A-20019 (Serratia marcescens A20019); 2 µg/mL in [4]. Further, the “Minimum Inhibitory Concentration (M.I.C.)” value was greater than 63 µg/mL in the experiment with Ps. aeruginosa A-21213 (Pseudomonas aeruginosa A21213) and 8 µg/mL in the experiment on Ps. aeruginosa A-9843A (Pseudomonas aeruginosa A9843A).

For the origin of these results see US4272437A, “Antibacterial agents, and 4-thio azetidinone intermediates” (priority 1979, dated 1981).
